# Assay results: patent US7906655B2, “Hepatitis C virus inhibitors” (Bristol-Myers Squibb Company, priority 2008, dated 2011)
# Tested on: HCV 1b genotype
# Assay: HCV Replicon assay (HCV-neo replicon cells, wild-type)
# Format: cell-based
# Conditions: HCV 1b genotype replicon; class symbols
# Method in brief: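 Inhibition was measured in HCV-neo (genotype 1b) replicon cells. Some assay versions used luciferase reporters.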
row,SMILES,EC50 [nM]
1,C[C@H](NC(=O)[C@@](C)(O)c1ccccc1)c1nc2cc(C#Cc3ccc4[nH]c([C@H](C)NC(=O)[C@@](C)(O)c5ccccc5)nc4c3)ccc2[nH]1 [Example M28],< 4.57
2,"O=C(Cc1ccccn1)N1CCC[C@H]1c1nc2cc(CCc3ccc4[nH]c([C@@H]5CCCN5C(=O)Cc5ccccn5)nc4c3)ccc2[nH]1 [Example M43, 5,5′-(1,2-ethanediyl)bis(2-((2S)-1-(2-pyridinylacetyl)-2-pyrrolidinyl)-1H-benzimidazole)]",4.57 to 99

# Same assay, conditions: Hepatitis C virus, HCV 1b genotype replicon; class symbols
row,SMILES,EC50 [nM]
1,"O=C(c1ccoc1)N1CCC[C@H]1c1nc2cc(C#Cc3ccc4[nH]c([C@@H]5CCCN5C(=O)c5ccoc5)nc4c3)ccc2[nH]1 [Example M13, 5,5′-(1,2-ethynediyl)bis(2-((2S)-1-(3-furoyl)-2-pyrrolidinyl)-1H-benzimidazole)]",< 4.57
2,"O=C(OCc1ccccc1)N1CCC[C@H]1c1nc2cc(-c3ccc4nc([C@@H]5CCCN5C(=O)OCc5ccccc5)[nH]c4c3)ccc2[nH]1 [Example M40, dibenzyl(2S,2′S)-2,2′-(1H,1′H-5,5′-bibenzimidazole-2,2′-diyl)di(1-pyrrolidinecarboxylate)]",100 to 999
3,"COc1cccc(CC(=O)N2CCC[C@H]2c2nc3cc(C#Cc4ccc5nc([C@@H]6CCCN6C(C)=O)[nH]c5c4)ccc3[nH]2)c1 [Example M54.17, 5-((2-((2S)-1-acetyl-2-pyrrolidinyl)-1H-benzimidazol-6-yl)ethynyl)-2-((2S)-1-((3-methoxyphenyl)acetyl)-2-pyrrolidinyl)-1H-benzimidazole]",4.57 to 99
4,"CN(C)[C@@H](C(=O)N1CCC[C@H]1c1nc2cc(-c3cnc(-c4cccc5[nH]c([C@@H]6C[C@@H]7C[C@@H]7N6C(=O)[C@@H](c6ccccc6)N(C)C)nc45)o3)ccc2[nH]1)c1ccccc1 (single isomer, unassigned) [Example J25]",< 4.57
5,"CCC(=O)N1CCC[C@H]1c1nc2cc(C#Cc3ccc4nc([C@@H]5CCCN5C(C)=O)[nH]c4c3)ccc2[nH]1 [Example M54.29, 5-((2-((2S)-1-acetyl-2-pyrrolidinyl)-1H-benzimidazol-6-yl)ethynyl)-2-((2S)-1-propionyl-2-pyrrolidinyl)-1H-benzimidazole]",100 to 999
6,"CN(C)[C@@H](C(=O)N1CCC[C@H]1c1nc2cc(-c3cnc(-c4ccc5nc([C@@H]6C[C@@H]7C[C@@H]7N6C(=O)[C@@H](c6ccccc6)N(C)C)[nH]c5c4)o3)ccc2[nH]1)c1ccccc1 [Example J23, (1R)-2-((2S)-2-(5-(2-(2-((1S,3S,5S)-2-((2R)-2-(dimethyl-amino)-2-phenylacetyl)-2-azabicyclo[3. 1.0]hex-3-yl)-1H-benzimidazol-5-yl)-1,3-oxazol-5-yl)-1H-benzimidazol-2-yl)-1-pyrrolidinyl)-N,N-dimethyl-2-oxo-1-phenyl-ethanamine]",< 4.57
7,"O=C(C1CC1)N1CCN(C(=O)OCc2ccccc2)C(c2nc3cc(CCc4ccc5nc(C6CN(C(=O)C7CC7)CCN6C(=O)OCc6ccccc6)[nH]c5c4)ccc3[nH]2)C1 (centres unmarked) [OL12, benzyl 2-(5-(2-(2-(1-((benzyloxy)carbonyl)-4-(cyclopropylcarbonyl)-2-piperazinyl)-1H-benzimidazol-6-yl)ethyl)-1H-benzimidazol-2-yl)-4-(cyclopropylcarbonyl)-1-piperazinecarboxylate]",100 to 999
8,"O=C(Cc1cccnc1)N1CCC[C@H]1c1nc2ccc(C#Cc3ccc4[nH]c([C@@H]5CCCN5C(=O)[C@H]5CCCO5)nc4c3)cc2[nH]1 [Example M49, 5-((2-((2S)-1-(3-pyridinylacetyl)-2-pyrrolidinyl)-1H-benzimidazol-6-yl)ethynyl)-2-((2S)-1-((2R)-tetrahydro-2-furanylcarbonyl)-2-pyrrolidinyl)-1H-benzimidazole]",< 4.57

# Same assay, conditions: Hepatitis C virus, HCV 1b genotype replicon; numeric values
row,SMILES,EC50 [nM]
1,"CC(C)CN[C@H]1C[C@@H](c2nc3cc(C#Cc4ccc5[nH]c([C@@H]6C[C@H](NCC(C)C)CN6C(=O)[C@H]6CCCO6)nc5c4)ccc3[nH]2)N(C(=O)[C@H]2CCCO2)C1 [Example M47.2, (3S,5S,3′S,5′S)-5,5′-(1,2-ethynediylbis(1H-benzimidazole-5,2-diyl))bis(N-isobutyl-1-((2R)-tetrahydro-2-furanylcarbonyl)-3-pyrrolidinamine)]",610
